These results are taken from patent publication US8415351B2 (priority 2007, dated 2013).

Bounds are passed on as bounds.

A word on the EC50: it is the concentration at which the effect is half-maximal.

Assay [1] has as its system genotype 1a-H77 subgenomic replicon cell line. Description: microbe, parasite or virus in culture. In kind it is cell-based, HCV. To be noted: Hepatitis C virus, read-out: EC50 1a.
Assay [2] deals with genotype 1b-Con1 subgenomic replicon cell line. Description: microbe, parasite or virus in culture. In kind it is cell-based, HCV. Particulars: Hepatitis C virus, read-out: EC50 1b.

As for `CCOC(=O)c1cc(NS(C)(=O)=O)ccc1/C=C/c1cc(-n2ccc(=O)[nH]c2=O)cc(C(C)(C)C)c1OC` [IB-L1-1.11, 2-{(E)-2-[3-tert-Butyl-5-(2,4-dioxo-3,4-dihydro-2H-pyrimidin-1-yl)-2-methoxy-phenyl]-vinyl}-5-methanesulfonylamino-benzoic acid ethyl ester], the EC50 in assay [1] is 10 to 100 nM; in assay [2] it was below 10 nM. For `COc1c(C=C(F)c2ccc(NS(C)(=O)=O)cc2)cc(N2CCC(=O)NC2=O)cc1C(C)(C)C` (racemic) [IA-L1-1.21, N-(4-(2-(3-tert-butyl-5-(2,4-dioxotetrahydropyrimidin-1(2H)-yl)-2-methoxyphenyl)-1-fluorovinyl)phenyl)methanesulfonamide] the same measures were below 10 nM and below 10 nM.

`COc1c(/C=C/c2ccc(NS(C)(=O)=O)cc2C(=O)N(C)C)cc(-n2ccc(=O)[nH]c2=O)cc1C(C)(C)C` [IB-L1-1.14, 2-{(E)-2-[3-tert-Butyl-5-(2,4-dioxo-3,4-dihydro-2H-pyrimidin-1-yl)-2-methoxy-phenyl]-vinyl}-5-methanesulfonylamino-N,N-dimethyl-benzamide]: the EC50 in assay [1] is 10 to 100 nM; in assay [2] it was below 10 nM. For `COc1c(-c2ccc3cc(NS(C)(=O)=O)ccc3c2)cc(-n2ccc(=O)[nH]c2=O)cc1-c1ccc(C)s1` [IB-L0-2.73, N-(6-(5-(2,4-dioxo-3,4-dihydropyrimidin-1(2H)-yl)-2-methoxy-3-(5-methylthiophen-2-yl)phenyl)naphthalen-2-yl)methanesulfonamide], in that order: 100 to 1000 nM and 100 to 1000 nM. Turning to `COc1c(C2CC2c2ccc(NS(C)(=O)=O)cc2)cc(N2CCC(=O)NC2=O)cc1C(C)(C)C` (centres unmarked) [IA-L8-1.1, N-(4-(2-(3-tert-butyl-5-(2,4-dioxotetrahydropyrimidin-1(2H)-yl)-2-methoxyphenyl)cyclopropyl)phenyl)methanesulfonamide], the EC50 in assay [1] and in assay [2] was 100 to 1000 nM throughout. For `COC(=O)c1cc(NS(C)(=O)=O)ccc1CCc1cc(-n2ccc(=O)[nH]c2=O)cc(C(C)(C)C)c1OC` [IB-L5-2-1.1, methyl 2-(3-tert-butyl-5-(2,4-dioxo-3,4-dihydropyrimidin-1(2H)-yl)-2-methoxyphenethyl)-5-(methylsulfonamido)benzoate], the EC50 in assay [1] is 10 to 100 nM; in assay [2], below 10 nM. For `COc1c(-c2ccsc2)cc(-n2ccc(=O)[nH]c2=O)cc1-c1ccc2cc(NS(C)(=O)=O)ccc2c1` [IB-L0-2.53, N-(6-(5-(2,4-dioxo-3,4-dihydropyrimidin-1(2H)-yl)-2-methoxy-3-(thiophen-3-yl)phenyl)naphthalen-2-yl)methanesulfonamide], in that order: 10 to 100 nM and 10 to 100 nM. For `COc1c(/C=C/c2ccc(NS(C)(=O)=O)cc2CNCCC(C)C)cc(-n2ccc(=O)[nH]c2=O)cc1C(C)(C)C` [IB-L1-1.31, (E)-N-(4-(3-tert-butyl-5-(2,4-dioxo-3,4-dihydropyrimidin-1(2H)-yl)-2-methoxystyryl)-3-((isopentylamino)methyl)phenyl)methanesulfonamide], in that order: above 1000 nM and above 1000 nM. For `COc1c(-c2cccc(Cl)c2)cc(-n2ccc(=O)[nH]c2=O)cc1-c1ccc2cc(NS(C)(=O)=O)ccc2c1` [IB-L0-2.74, N-(6-(3′-chloro-5-(2,4-dioxo-3,4-dihydropyrimidin-1(2H)-yl)-2-methoxybiphenyl-3-yl)naphthalen-2-yl)methanesulfonamide], in that order: above 1000 nM and 100 to 1000 nM. As for `COc1c(/C=C/c2ccc(NS(C)(=O)=O)cc2)cc(-n2ccc(=O)[nH]c2=O)cc1-c1ccco1` [IB-L1-1.46, (E)-N-(4-(5-(2,4-dioxo-3,4-dihydropyrimidin-1(2H)-yl)-3-(furan-2-yl)-2-methoxystyryl)phenyl)methanesulfonamide], the EC50 was 100 to 1000 nM in assay [1] and below 10 nM in assay [2]. For `COc1c(-c2ccc3c(C)coc3c2)cc(-n2ccc(=O)[nH]c2=O)cc1C(C)(C)C` [IB-L0-2.42, 1-(3-tert-butyl-4-methoxy-5-(3-methylbenzofuran-6-yl)phenyl)-pyrimidine-2,4(1H,3H)-dione], in that order: 100 to 1000 nM and 100 to 1000 nM.

Regarding `COc1c(/C=C/c2ccc(NS(C)(=O)=O)cc2C(=O)N2CCC2)cc(-n2ccc(=O)[nH]c2=O)cc1C(C)(C)C` [IB-L1-1.22, N-(3-(azetidine-1-carbonyl)-4-{(E)-2-[3-tert-butyl-5-(2,4-dioxo-3,4-dihydro-2H-pyrimidin-1-yl)-2-methoxy-phenyl]-vinyl}-phenyl)-methanesulfonamide], the EC50 is 10 to 100 nM in assay [1] and below 10 nM in assay [2]. For `COc1c(-c2ccc3c(CNS(C)(=O)=O)noc3c2)cc(-n2ccc(=O)[nH]c2=O)cc1C(C)(C)C` [IB-L0-2.45, N-((6-(3-tert-butyl-5-(2,4-dioxo-3,4-dihydropyrimidin-1(2H)-yl)-2-methoxyphenyl)benzo[d]isoxazol-3-yl)methyl)methanesulfonamide], in that order: above 1000 nM and 100 to 1000 nM. `COc1c(-c2ccc3c(c2)CC=C3CN(C)S(C)(=O)=O)cc(-n2ccc(=O)[nH]c2=O)cc1C(C)(C)C` [IB-L0-2.16, N-((6-(3-tert-butyl-5-(2,4-dioxo-3,4-dihydropyrimidin-1(2H)-yl)-2-methoxyphenyl)-1H-inden-3-yl)methyl)-N-methylmethanesulfonamide]: the half-maximal effective concentration (EC50) in assay [1] was 100 to 1000 nM; in assay [2], below 10 nM. For `CC(C)(C)c1cc(-n2ccc(=O)[nH]c2=O)cc(/C=C/c2ccc(NS(C)(=O)=O)cc2)c1Cl` [IB-L1-1.12, N-(4-{(E)-2-[3-tert-Butyl-2-chloro-5-(2,4-dioxo-3,4-dihydro-2H-pyrimidin-1-yl)-phenyl]-vinyl}-phenyl)-methanesulfonamide] the same measures were 10 to 100 nM and 10 to 100 nM. For `COc1c(N2Cc3ccc(NS(C)(=O)=O)cc3C2)cc(-n2ccc(=O)[nH]c2=O)cc1C(C)(C)C` [IB-L0-2.79, N-(2-(3-tert-butyl-5-(2,4-dioxo-3,4-dihydropyrimidin-1(2H)-yl)-2-methoxyphenyl)isoindolin-5-yl)methanesulfonamide], in that order: 100 to 1000 nM and 100 to 1000 nM. Consider `COc1c(/C=C/c2ccc(NS(C)(=O)=O)cc2)cc(-n2cc(F)c(=O)[nH]c2=O)cc1C(C)(C)C` [IB-L1-1.2, (E)-N-(4-(3-tert-butyl-5-(5-fluoro-2,4-dioxo-3,4-dihydro-pyrimidin-1(2H)-yl)-2-methoxystyryl)phenyl)methanesulfonamide], for which the EC50 in assay [2] was in the range of 10 to 100 nM. Still for that read-out and setting: then `COc1c(-c2ccc3c(c2)CC/C3=N\NS(C)(=O)=O)cc(-n2ccc(=O)[nH]c2=O)cc1C(C)(C)C` [IB-L0-2.4, (E)-N′-(5-(3-tert-butyl-5-(2,4-dioxo-3,4-dihydropyrimidin-1(2H)-yl)-2-methoxyphenyl)-2,3-dihydro-1H-inden-1-ylidene)methanesulfonohydrazide], with below 10 nM; and `CC(C)(C)c1cc(-c2ccc3cc(NS(C)(=O)=O)ccc3c2)cc(-n2ccc(=O)[nH]c2=O)c1` [IB-L0-2.8, N-(6-(3-tert-butyl-5-(2,4-dioxo-3,4-dihydropyrimidin-1(2H)-yl)phenyl)naphthalen-2-yl)methanesulfonamide], with 10 to 100 nM.
